From patent US9932340B2, “Substituted indoles” (AbbVie Inc., priority 2014, dated 2018)
pIC50: −log10 of the molar value.

Biological target: SUV420H1 enzyme (Homo sapiens, UniProt Q4FZB7)
Assay: TR-FRET SAH SUV420H1 enzyme inhibition assay
Type: biochemical
Conditions: Histone Peptide H4(8-30)me1 and SAM, overnight at room temp, TR-FRET detection of SAH, read-out: TR-FRET SAH_SUV420H1 IC50
Summary of the method: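 SUV420H1 (90 nM) preincubated 30 min with compound (3-fold dilutions, 50 to 0.00075 μM), then H4(8-30)me1 peptide 5 nM and SAM 4 nM added, overnight at room temp. SAH product detected by TR-FRET with Tb anti-SAH antibody and Oregon Green-SAH in RIPA buffer, 4 h; IC50 from Hill fit, asymptotes fixed 0-100%.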

Chain of SUV420H1 enzyme (Q4FZB7 whole entry): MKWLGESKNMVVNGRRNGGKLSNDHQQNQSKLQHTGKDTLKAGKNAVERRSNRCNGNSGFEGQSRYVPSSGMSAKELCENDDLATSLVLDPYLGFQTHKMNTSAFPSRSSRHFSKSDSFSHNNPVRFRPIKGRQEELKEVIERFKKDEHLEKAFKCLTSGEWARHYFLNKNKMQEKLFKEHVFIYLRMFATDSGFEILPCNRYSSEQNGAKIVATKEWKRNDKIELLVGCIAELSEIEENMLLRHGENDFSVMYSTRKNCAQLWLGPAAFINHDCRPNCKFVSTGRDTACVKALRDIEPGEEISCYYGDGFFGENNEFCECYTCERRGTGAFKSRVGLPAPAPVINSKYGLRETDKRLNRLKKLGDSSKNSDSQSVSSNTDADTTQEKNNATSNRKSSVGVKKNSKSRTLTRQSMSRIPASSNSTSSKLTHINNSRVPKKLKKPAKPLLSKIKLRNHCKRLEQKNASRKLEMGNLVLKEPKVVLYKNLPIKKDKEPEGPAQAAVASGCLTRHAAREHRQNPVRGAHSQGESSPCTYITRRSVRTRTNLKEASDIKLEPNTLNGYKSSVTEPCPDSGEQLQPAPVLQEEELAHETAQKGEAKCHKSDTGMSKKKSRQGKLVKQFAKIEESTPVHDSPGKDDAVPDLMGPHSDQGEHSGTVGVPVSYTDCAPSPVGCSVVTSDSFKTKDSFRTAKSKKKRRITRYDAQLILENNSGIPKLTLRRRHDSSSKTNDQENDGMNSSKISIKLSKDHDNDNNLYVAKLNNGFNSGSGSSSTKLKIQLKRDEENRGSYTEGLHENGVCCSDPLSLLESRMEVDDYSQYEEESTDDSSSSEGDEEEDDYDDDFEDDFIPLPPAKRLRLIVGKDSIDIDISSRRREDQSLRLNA

Structure (SMILES) | pIC50
CC(C)n1ncc2cc(C(=O)NCc3cc4cc(Cl)cc(Cn5cnc6c(N)ncnc65)c4[nH]3)cnc21 [Example 372, N-({7-[(6-amino-9H-purin-9-yl)methyl]-5-chloro-1H-indol-2-yl}methyl)-1-(propan-2-yl)-1H-pyrazolo[3,4-b]pyridine-5-carboxamide] | 6.01
COc1c(C(=O)NCc2cc3cc(Cl)cc(Cn4cnc5c(N)ncnc54)c3[nH]2)cnc2c1c(C)nn2C [Example 373, N-({7-[(6-amino-9H-purin-9-yl)methyl]-5-chloro-1H-indol-2-yl}methyl)-4-methoxy-1,3-dimethyl-1H-pyrazolo[3,4-b]pyridine-5-carboxamide] | 7.07
Cc1nc2c(cnn2C(C)C)cc1C(=O)NCc1cc2cc(Cl)cc(Cn3cnc4c(N)ncnc43)c2[nH]1 [Example 377, N-({7-[(6-amino-9H-purin-9-yl)methyl]-5-chloro-1H-indol-2-yl}methyl)-6-methyl-1-(propan-2-yl)-1H-pyrazolo[3,4-b]pyridine-5-carboxamide] | 5.57

Next, values leading:

pIC50 | Structure (SMILES)
6.58 | Cc1[nH]c2cc(C(=O)NCc3cc4cc(Cl)cc(Cn5cnc6c(N)ncnc65)c4[nH]3)ccc2c1C [Example 374, N-({7-[(6-amino-9H-purin-9-yl)methyl]-5-chloro-1H-indol-2-yl}methyl)-2,3-dimethyl-1H-indole-6-carboxamide]
4.91 | Cc1[nH]c2ccc(C(=O)NCc3cc4cc(Cl)cc(Cn5cnc6c(N)ncnc65)c4[nH]3)cc2c1C [Example 375, N-({7-[(6-amino-9H-purin-9-yl)methyl]-5-chloro-1H-indol-2-yl}methyl)-2,3-dimethyl-1H-indole-5-carboxamide]
5.53 | Cc1nc2cc(C(=O)NCc3cc4cc(Cl)cc(Cn5cnc6c(N)ncnc65)c4[nH]3)ccc2n1CCO [Example 376, N-({7-[(6-amino-9H-purin-9-yl)methyl]-5-chloro-1H-indol-2-yl}methyl)-1-(2-hydroxyethyl)-2-methyl-1H-benzimidazole-5-carboxamide]
5.20 | Cc1c(C)n(C)c2ccc(C(=O)NCc3cc4cc(Cl)cc(Cn5cnc6c(N)ncnc65)c4[nH]3)cc12 [Example 378, N-({7-[(6-amino-9H-purin-9-yl)methyl]-5-chloro-1H-indol-2-yl}methyl)-1,2,3-trimethyl-1H-indole-5-carboxamide]
6.12 | CCCCc1nc2cc(C(=O)NCc3cc4cc(Cl)cc(Cn5cnc6c(N)ncnc65)c4[nH]3)ccc2o1 [Example 379, N-({7-[(6-amino-9H-purin-9-yl)methyl]-5-chloro-1H-indol-2-yl}methyl)-2-butyl-1,3-benzoxazole-5-carboxamide]
